Results taken from US8101386B2, “Escherichia coli strains which over-produce L-threonine and processes for the production of L-threonine by fermentation” (Archer Daniels Midland Company, priority 2000, dated 2012).

Tests used:
E. coli strain 6-8 = experiment: CPCA resistance test: growth in minimal medium E with CPCA; assay type: cell-based; set-up: unit not given here; settings: 24 hr, 36° C.
Procedure: (§1) To test for CPCA resistance, each strain was cultivated in 20 ml of the seed medium SM (32.5 g/L glucose; 1 g/L MgSO4 7H2O; 24.36 g/L K2HPO4; 9.52 g/L KH2PO4; 5 (NH4)2SO4; 15 g/L yeast extract; pH 7.2) at 36° C. for 17 hr with shaking. The cells were harvested and washed with minimal medium E. The cell suspension was then inoculated into a sterilized tube containing 3 ml of minimal medium E and 0, 0.1, 0.5, or 1 mM CPCA. After 24 hr cultivation as 36° C. with shaking, growth was determined by measuring the optical density at 660 nm. The results are shown below in Table 1 relative to growth in the absence of CPCA.

E. coli strain G909 = experiment: as above; assay type: cell-based; settings: 24 hr, 36° C.
Procedure: as §1

threonyl tRNA-synthetase = threonyl tRNA-synthetase (Escherichia coli, UniProt P0A8M3); settings: G. Nass et al. 1969; cited from earlier work
E. coli = settings: G. Nass et al. 1969; cited from earlier work

Sequence of threonyl tRNA-synthetase (P0A8M3 whole entry): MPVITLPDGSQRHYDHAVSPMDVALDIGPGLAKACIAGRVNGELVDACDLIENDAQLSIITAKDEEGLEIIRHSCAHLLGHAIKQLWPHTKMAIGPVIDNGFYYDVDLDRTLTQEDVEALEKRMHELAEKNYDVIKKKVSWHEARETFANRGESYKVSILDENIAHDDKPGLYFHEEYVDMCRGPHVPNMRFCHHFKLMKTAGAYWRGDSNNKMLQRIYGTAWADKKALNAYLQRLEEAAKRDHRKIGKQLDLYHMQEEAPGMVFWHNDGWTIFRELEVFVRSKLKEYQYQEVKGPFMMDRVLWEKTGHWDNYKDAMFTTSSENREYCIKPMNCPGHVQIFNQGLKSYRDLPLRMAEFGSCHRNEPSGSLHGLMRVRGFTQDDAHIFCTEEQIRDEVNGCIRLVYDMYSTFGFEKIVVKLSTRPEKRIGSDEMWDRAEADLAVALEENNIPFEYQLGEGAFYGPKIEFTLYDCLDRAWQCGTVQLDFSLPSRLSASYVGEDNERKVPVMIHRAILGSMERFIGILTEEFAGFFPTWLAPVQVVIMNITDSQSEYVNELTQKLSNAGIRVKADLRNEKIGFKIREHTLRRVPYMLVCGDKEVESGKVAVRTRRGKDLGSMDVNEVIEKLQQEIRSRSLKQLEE

SMILES	growth (optical density at 660 nm) relative to growth in the absence of CPCA (E. coli strain 6-8; 0.1 mM CPCA)	growth (optical density at 660 nm) relative to growth in the absence of CPCA (E. coli strain 6-8; 0.5 mM CPCA)	growth (optical density at 660 nm) relative to growth in the absence of CPCA (E. coli strain 6-8; 1 mM CPCA)	growth (optical density at 660 nm) relative to growth in the absence of CPCA (E. coli strain G909; 0.1 mM CPCA)	growth (optical density at 660 nm) relative to growth in the absence of CPCA (E. coli strain G909; 0.5 mM CPCA)	growth (optical density at 660 nm) relative to growth in the absence of CPCA (E. coli strain G909; 1 mM CPCA)	effect on enzymatic activity of threonyl tRNA-synthetase (threonyl tRNA-synthetase)	effect on growth of E. coli (E. coli)
O=C(O)C1CCCC1 [CPCA, cyclopentanecarboxylic acid]	134.5	141.0	184.5	24.2	2.9	0.9	–	–
C[C@@H]1C[C@H](C)C[C@H](C)[C@@H](O)CC(=O)O[C@H]([C@@H]2CCC[C@H]2C(=O)O)C/C=C/C=C(/C#N)[C@H](O)[C@@H](C)C1 [borrelidin]	–	–	–	–	–	–	reduce the enzymatic activity	inhibit the growth
